Results published in patent publication US20210353751A1, “COMBINATION THERAPIES FOR TREATMENT OF INFLAMMATORY DISEASES” (The Regents of The University of California, priority 2018, published 2021).
Read-outs that look alike come from different tables or passages of the source.

Assays:
[1] = system: Newly-diabetic NOD mice; assay: Anti-CD3 plus GABA in newly-diabetic NOD mice: glycemia and islet staining (insulin/glucagon) after three months; assay type: in vivo
Description: Newly-diabetic NOD mice (blood glucose 220-300 mg/dL on two consecutive days) were treated with anti-CD3 (non-Fc binding anti-CD3ε F(ab′)2 from BioExpress, 40 μg/day intravenously for 5 consecutive days) and immediately began one of the following additional treatments: • (1) control PBS IP; • (2) GABA (dissolved in PBS, 250 μg/kg, IP); • (3) control plain drinking water; or • (4a) drinking water containing 6 mg/ml GABA or (4b) drinking water containing 20 mg/ml GABA. Mice drink approximately 4 ml/day, so Group 4a consumed approximately 24 mg/day of GABA and Group 4b consumed approximately 80 mg/day of GABA.
Three months after beginning treatment, pancreata from the mice were removed and sections (4 μm) were stained with Alexa Fluor 647-anti-glucagon (shown in red in the Figures) and Alexa-488 conjugated with anti-insulin (shown in green in the Figures), followed by staining with 4′,6-diamidino-2-phenylindole (“DAPI”). Images were captured using a fluorescent microscope and at least 30 islets from each group of mice (n=4) were analyzed. Data are representative islet images or expressed as the mean±standard deviation (“SD”) of each group.

[2] = after intravenous or intraperitoneal injection; cited from earlier work
[3] = system: Newly-diabetic NOD mice; conditions: oral GABA at 20 mg/ml, monotherapy; cited from earlier work
[4] = system: Newly-diabetic NOD mice; assay: Homotaurine monotherapy dose-finding study in newly-diabetic NOD mice; assay type: in vivo
Description: To determine whether homotaurine had therapeutic potential in NOD mice, the inventors performed a dose finding study with homotaurine dissolved in the drinking water at 0, 0.08, 0.25 or 0.75 mg/ml. […] Newly-diabetic NOD mice that were untreated rapidly progressed to severe hyperglycemia within 1 week. […] Thus, oral homotaurine monotherapy at an appropriate dose can quickly correct hyperglycemia and maintain normoglycemia for a short period, but most of the treated mice become hyperglycemic again.
A dose finding study was performed with homotaurine dissolved in the drinking water at 0, 0.08, 0.25 or 0.75 mg/ml to determine the therapeutic potential in NOD mice. […] Newly-diabetic NOD mice that were untreated rapidly progressed to severe hyperglycemia within 1 week. […] Thus, oral homotaurine monotherapy at an appropriate dose can quickly correct hyperglycemia but most of the treated mice become hyperglycemic again within a short period.
NOD mice (Taconic Farms, Germantown) were housed in a specific pathogen-free facility. Only female NOD mice were used.
Blood glucose levels were monitored 2-3 times weekly using a One Touch Ultrasensitive monitor and those with two consecutive daily blood glucose levels between 250-300 mg/dL were entered into the study. The mice were randomly assigned to groups that continually received water containing 0, 0.08, 0.25, or 0.75 mg/ml homotaurine, pH 7.2 through their drinking water. Each mouse consumed on average about 4-5 ml of water per day. Water bottles were changed every five days. Treated mice with two consecutive blood glucose readings below 250 mg/dL were considered to be in remission after which two consecutive blood glucose readings >250 mg/dL was considered disease relapse.

[5] = system: newly severely hyperglycemic NOD mice; assay: Combined GABA-R agonist and low-dose anti-CD3 treatment in severely hyperglycemic NOD mice (remission/relapse); assay type: in vivo; conditions: homotaurine alone 0.25 mg/ml; severe hyperglycemia at entry
Description: The inventors hypothesized that combining GABA-Receptor activation with an immunosuppressant may allow effective disease reversal using lower dosages of the immunosuppressant and thereby reduce the possibility of side effects. The inventors chose to test anti-CD3 since it is a prototypic immunosuppressant that is in clinical use. In pilot studies, the inventors developed a low-dose anti-CD3 treatment protocol (35 μg anti-CD3 on three consecutive days), which reversed hyperglycemia in about a third of newly-diabetic NOD mice with severe hyperglycemia at entry into the study (blood glucose >350 mg/dL). The inventors then treated newly severely hyperglycemic NOD mice with low-dose anti-CD3 together with homotaurine (0.25 mg/ml), GABA (6 mg/ml), or plain water.
For these studies, the inventors initiated treatment when the NOD mice had blood glucose levels >350 mg/dL. […] Treated mice with two consecutive blood glucose readings below 250 mg/dL were considered to be in remission after which two consecutive blood glucose readings >250 mg/dL was considered to be disease relapse […]
Treatment was initiated when the NOD mice had blood glucose levels >350 mg/dL. […] Treated mice with two consecutive blood glucose readings below 250 mg/dL were considered to be in remission after which two consecutive blood glucose readings >250 mg/dL was considered to be disease relapse.

[6] = system: PLN mononuclear cells of NOD mice; assay: Pancreatic lymph node (PLN) mononuclear cell analysis; assay type: in vivo; conditions: treated at 15-18 weeks in age, studied 3 weeks later; monotherapies relative to control, combination relative to monotherapies
Source text: This increase was significant for CD4^+CD25^+Foxp3^+ cells in comparison to homotaurine monotherapy. Thus, combined therapy also elevated the average frequencies of CD4^+ and CD8^+ Tregs within the target tissue/PLN of NOD mice

[7] = system: GABA-R; conditions: relative to GABA; cited from earlier work
[8] = system: splenic Tregs of SJL mice; conditions: homotaurine monotherapy, EAE model; cited from earlier work
[9] = homotaurine 0.08 mg/ml in drinking water
[10] = homotaurine 0.25 mg/ml in drinking water

Structure (SMILES)	numbers of bihormonal cells versus groups treated with lower dosages of GABA ([1]; GABA 20 mg/ml in drinking water with anti-CD3)	frequency of bihormonal glucagon+ insulin+ cells versus control groups ([1]; all GABA-treated groups (250 μg/kg IP, 6 or 20 mg/ml in water), all with anti-CD3)	increase in the frequency of insulin+ cells per islet relative to control groups who received anti-CD3 alone ([1]; highest GABA dose (20 mg/ml in drinking water) with anti-CD3)	half-life in plasma [2]	restoration of normoglycemia [3]	time at which mice became hyperglycemic again [3]	water or food consumption or body weights over the course of the study ([4]; homotaurine 0, 0.08, 0.25 or 0.75 mg/ml in drinking water)	delay of disease progression (mean) [4, 9]	effect on disease progression [4, 9]	restoration of normoglycemia [4, 10]	time at which most mice became hyperglycemic again [4, 10]	effect on disease progression ([4]; homotaurine 0.75 mg/ml in drinking water, on average less effective than 0.25 mg/ml)	mean remission period for all mice ([4]; homotaurine monotherapy 0.25 mg/ml in drinking water)	induction of remission [5]	frequency of CD4+CD25+Foxp3+ cells in the PLN [6]	frequency of CD8+CD122+PD-1+ cells in the PLN [6]	affinity for GABA-R, higher than GABA [7]	half-life in plasma compared with GABA [2]	frequency of splenic CD4+Foxp3+ Tregs [8]	frequency of splenic CD8+CD122+PD-1+ Tregs [8]
NCCCC(=O)O [GABA, γ-aminobutyric acid]	greater numbers of bihormonal cells	significantly increased	26 fold	20 min	restored normoglycemia in all mice	generally within five weeks	–	–	–	–	–	–	–	–	–	–	–	–	–	–
NCCCS(=O)(=O)O [homotaurine]	–	–	–	–	–	–	None of the mouse groups under study differed	2.2 weeks	delayed disease progression for a very brief period	restored normoglycemia in all mice	≤ 6 weeks	some delay in disease progression	14 weeks	unable to induce remission	significantly increased	significantly increased	> 3 fold	longer half-life than GABA	increased the frequency	increased the frequency
